Converted amounts (≈) assume the structure as drawn. “And” between values parts separate entries of the source, which are not always exact repeats. Equal entries are not always repeated. Where two headings read alike, the source gives them in different places.
Legend:
[1] = test system: CV-1 Normal Monkey Kidney Epithelial; assay: Clonogenic dye screening assay, CV-1 cells (IC50); format: cell-based, African green monkey; conditions: for IC50: Primates; for CV (IC50 in the CV-1 cell line): 3 hrs treatment, unit from method b117-118
From the text: CX-1 is a cancerous human colon adenocarcinoma cell line. CV-1 is a non-cancerous control, which is a kidney epithelial cell line from an African green monkey. IC50 is the dye concentration at which 50% of the cells are killed. Selectivity or kill ratio is defined as the ratio of […] at IC50 for both CX-1 and CV-1. A ratio with a high number indicates a high selectivity.
The dyes were screened in two cell lines. CX-1 is a human colon adenocarcinoma cell line. CV-1 is a kidney epithelial cell line from an African green monkey. CV-1 was used as a reference because no normal human epithelial cell line is available for clonogenic assay.
In the initial screen, dyes were examined at six different concentrations to generate a dose response curve. An IC50 value, the concentration at which 50% of the cells are killed, was then calculated. Initially, a dye concentration of 1.0 μg/mL was the highest examined for the CX-1 cell line and 0.005 μg/mL was the lower limit. The corresponding limits on the CV-1 cell line were […].
The screening procedure used a response curve that was determined from eight dye concentrations. The upper and lower limits of CX-1 were 0.32 and 0.0015 μg/mL, respectively, and the corresponding revised limits on CV-1 were 3.2 and 0.025 μg/mL. The screening results were reported by assigning an IC50 value to each dye for the CV-1 and CX-1 cell lines. These values will be referred to herein simply as CV and CX. The most desirable result would be to have a dye that was highly toxic to carcinoma cells but nontoxic to ‘normal’ cells. One measure of this type of selectivity is the ratio of the IC50's in the normal cell line to that in the carcinoma line, CV/CX.
Compounds are screened via an in vitro assay. CV-1 and CX-1 cells are seeded into separate assay plates. The plates are treated with varying concentrations of test compounds, rinsed, and colonies allowed to grow. IC50's are determined and drugs evaluated based on their selectivity and toxicity. Assay Steps: • I. Seeding Cells • II. Weighing • III. Preparation of Solution • IV. Treatment • V. Rinsing and Feeding • VI. Fixing • VII. IC50 Determination I. Seeding Cells
The cells should be seeded 16-30 hours before treatment. The media for CV-1 cells is DME+5% calf serum +5% Nuserum. The media for CX-1 cells is RPMI/DME (50/50)+5% calf serum +5% Nuserum.
(c) number of cells based on 2000 CX-1 cells/well and 1000 CV-1 cells/well. NOTE: Always make enough cell suspension for 1 extra plate to allow for volume loss during transfers.
• (a) For CV-1: 256 ug/ml-256 ul of 1 mg/ml stock +744 ul DMSO • (b) For CX-1: 25.6 ug/ml-100 ul of 256 ug/ml+900 ul DMSO IV. Treatment • 1. Each plate is treated with 4 test compounds, one positive control and one negative control. • 2. Serial dilutions of the compounds are made in the following way:
2 multi-well pipetters are used. One is set for 10 ul and one for 200 ul. Each is equipped with 6 tips spaced such that they fit into the 6 rows of a plate. 390 ul of media is added to the first column of each plate. 10 ul each of 4 compound solutions, a positive and a negative control are taken up and put into the first column of wells. The 200 ul pipetter is then placed in the same wells, pipetted up and down 3 times and two 200 ul aliquots are moved to the next column of wells. This column is pipetted up and down 3 times and 400 ul moved to column 3, etc. The final 400 ul excess from column 8 is discarded.
• 3. Label the plates along the front, each row −1 compound. • 4. Incubate the plates at 37° C. for 3 hrs. V. Rinsing • 1. Prepare several bottles of CX-1 and CV-1 media. • 2. Check for precipitate in first column of each plate and note. • 3. Starting with the plates treated first, rinse several plates at a time by aspirating the treatments and refilling each well with 0.5-1.0 ml of the rinse media. Aspirate and refill 2 more times for a total of 3 rinses. • 4.

[2] = test system: CX-1 Human Colon Carcinoma; assay: Clonogenic dye screening assay, CX-1 cells (IC50); format: cell-based; conditions: for IC50: Homo sapiens; for CV/CX (selectivity, kill ratio): ratio of IC50 in normal CV-1 line to IC50 in carcinoma CX-1 line; for CV/C: Table XXI, selectivity ratio, value of 1 where dye inactive; for Selectivity: Table 1, cell line not given, values equal CV/CX of Table II; for CX (IC50 in the CX-1 cell line): 3 hrs treatment, unit from method b117-118
Outline: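 Cells seeded 16-30 h ahead (2000 CX-1 or 1000 CV-1 per well), exposed to serially diluted dyes for 3 h at 37 °C, rinsed three times, then grown into colonies. Eight-point curves spanned 0.32-0.0015 μg/mL (CX-1) and 3.2-0.025 μg/mL (CV-1). IC50 is the concentration killing 50% of cells.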

[3] = CV-1, 3 hrs treatment, colonies after 7-10 days, unit from method, read-out: CV (IC50 in the CV-1 cell line)
[4] = CX-1, 3 hrs treatment, colonies after 7-10 days, unit from method, read-out: CX (IC50 in the CX-1 cell line)
[5] = CV-1, Table XXI, oxathiacarbocyanine nitrogen substituents, CV-1 cells, read-out: CV
[6] = CX-1, Table XXI, oxathiacarbocyanine nitrogen substituents, CX-1 cells, read-out: CX
[7] = CV-1, Table XVI, unsymmetrical dyes, CV-1 cells, read-out: CV
[8] = CX-1, Table XVI, unsymmetrical dyes, CX-1 cells, read-out: CX
[9] = Table XVI, selectivity ratio of IC50 values
[10] = CV-1, read-out: CV (IC50 in the CV-1 cell line)
[11] = CX-1, read-out: CX (IC50 in the CX-1 cell line)

Row | SMILES | IC50 [2, 4] [µg/mL] | IC50 [1, 3] [µg/mL] | CV/CX (selectivity, kill ratio) [2] | also measured
1 | CCN1/C(=C\C=c2\s/c(=C/c3sc4ccccc4[n+]3CC)n(C)c2=O)Sc2ccccc21 [Dye D-111] | 0.03 | 8 | 270 and 266.7 | –
2 | C(=C\c1cc[n+]2c3c(cccc13)Sc1ccccc1-2)/C=c1\ccn2c3ccccc3sc3cccc1c3-2 [Dye D-117] | 0.1 | 7 | 70 | –
3 | CCN(CC)CCN1/C(=C/C(C)=C/c2sc3ccccc3[n+]2CCN(CC)CC)Sc2ccccc21 [Dye D-121] | 0.01 | 0.8 | 80 | –
4 | CC[n+]1c(/C=C/C=C2\Sc3ccccc3N2CC#N)oc2ccccc21 [Dye D-124] | 0.1 | 10 | 100 | IC50 [1, 5]: 10 µg/mL; IC50 [2, 6]: 0.1 µg/mL; CV/C [2]: 100.0
5 | CCSC(=C\c1oc2ccccc2[n+]1C)/C=C1\Sc2ccccc2N1CC.[I-] [Dye D-127] | – | – | 60 | CV (IC50 in the CV-1 cell line) ([1]; colonies after 7-10 days): 0.3 µg/mL
6 | CCN1/C(=C/C=C/c2oc3ccccc3[n+]2CC)Sc2ccc(O)cc21.[I-] [Dye D-128] | – | – | 60 | CV (IC50 in the CV-1 cell line) ([1]; colonies after 7-10 days): 0.3 µg/mL
7 | CC[n+]1c(/C=C/C=C2/c3c(C)ccc(C)c3C(C)(Cc3ccccc3)N2C)sc2ccccc21 [Dye D-132] | 0.007 | 3 | 430 and 428.57 | IC50 [1, 7]: 3 µg/mL; IC50 [2, 8]: 0.007 µg/mL; Selectivity [2]: 428.57; CV/CX [2, 9]: 428.6
8 | CCN1/C(=C/C=C/c2sc3ccccc3[n+]2CC)[Se]c2ccc(OC)cc21 [Dye D-134] | – | – | 80 | IC50 [1, 10]: 0.2 µg/mL; IC50 [2, 11]: 0.0025 µg/mL
9 | CCN1/C(=C/C=C/c2sc3ccccc3[n+]2CC)[Se]c2ccc(Cl)cc21 [Dye D-135] | – | – | >200.0 and 200 | IC50 [1, 10]: 1 µg/mL; IC50 [2, 11]: < 0.005 µg/mL; Selectivity [2]: 200
10 | CCN1/C(=C/C=C/c2oc3ccc(OC)cc3[n+]2CC)Sc2ccccc21.[I-] [Dye D-136] | – | – | >60.0 and 60 | CV (IC50 in the CV-1 cell line) ([1]; colonies after 7-10 days): 0.3 µg/mL; CX (IC50 in the CX-1 cell line) ([2]; colonies after 7-10 days): <0.005 µg/mL
11 | CCN1/C(=C/C(=C/c2oc3ccccc3[n+]2CC)SC)Sc2ccccc21.[I-] [Dye D-137] | – | – | 100 | CV (IC50 in the CV-1 cell line) ([1]; colonies after 7-10 days): 3.0 µg/mL; CX (IC50 in the CX-1 cell line) ([2]; colonies after 7-10 days): 0.03 µg/mL
12 | CCN1/C(=C/C=C/c2oc3ccc(SC)cc3[n+]2C)Sc2ccccc21.[I-] [Dye D-138] | – | – | >60.0 and 60 | CV (IC50 in the CV-1 cell line) ([1]; colonies after 7-10 days): 0.3 µg/mL; CX (IC50 in the CX-1 cell line) ([2]; colonies after 7-10 days): <0.005 µg/mL
13 | CCN1/C(=C(\C=C\c2oc3ccccc3[n+]2CC)c2ccccc2)Sc2ccccc21.[I-] [Dye D-139] | – | – | 100 | CV (IC50 in the CV-1 cell line) ([1]; colonies after 7-10 days): 3.0 µg/mL; CX (IC50 in the CX-1 cell line) ([2]; colonies after 7-10 days): 0.03 µg/mL
14 | CCN1/C(=C/C=C/c2cc3scc([S-])[n+]3c3ccccc23)Oc2ccccc21 [Dye D-141] | < 0.005 | 0.5 (≈ 1.24 µM) | 100 | –
15 | CCSC(=C\c1oc2ccccc2[n+]1CC)/C=C1\Sc2ccccc2N1CC.[I-] [Dye D-142] | – | – | – | CV (IC50 in the CV-1 cell line) ([1]; colonies after 7-10 days): 0.5 µg/mL; CX (IC50 in the CX-1 cell line) ([2]; colonies after 7-10 days): <0.005 µg/mL
16 | CCN1/C(=C/C=C/c2sc3c([n+]2C)CCCC3)Sc2ccccc21 [Dye D-146] | ≤ 0.004 | 0.3 | 75.0 and 60 | –
17 | CC[n+]1c(/C=C/C=C2\[Te]c3ccccc3N2C)sc2ccccc21 [Dye D-152] | – | – | 60 | IC50 ([1]; CV-1, read-out: CV): 0.3 µg/mL; IC50 [1, 10]: 0.3 µg/mL; IC50 ([2]; CX-1, read-out: CX): < 0.005 µg/mL; IC50 [2, 11]: < 0.005 µg/mL; CV/CX [2, 9]: >60.0; CX ([2]; Table XVII, benzotellurazole derivatives, CX-1 cells): <0.005; CV/CX ([2]; Table XVII, selectivity ratio of IC50 values): >60.0

More lines, main results first:

Row | IC50 [2, 4] [µg/mL] | SMILES | IC50 [1, 3] [µg/mL] | CV/CX (selectivity, kill ratio) [2] | also measured
18 | 0.045 | CCN1/C(=c2/s/c(=c3\s/c(=C\c4ccc5ccccc5[n+]4CC)n(CC)c3=O)n(CC)c2=O)Sc2ccccc21 [Dye D-108] | 3.2 | 71.15 | –
19 | 0.05 | CCN1/C(=C/C=C/c2sc3cc4ccccc4nc3[n+]2CC)Sc2ccc3ccccc3c21 [Dye D-114] | 3 | 60 | –
20 | 0.01 | CC[n+]1c(/C=C/C=C2\SC=C(C)N2C)oc2ccccc21 [Dye D-120] | 5 | 500 | –
21 | < 0.005 | CC[n+]1c(/C=C/C=C2\Sc3ccccc3N2C(C)C)oc2ccccc21 [Dye D-122] | 0.4 | 80 and >80.0 | IC50 [1, 5]: 0.4 µg/mL; IC50 [2, 6]: < 0.005 µg/mL; CV/C [2]: >80.0
22 | 0.005 | CCN1C=C(c2ccccc2)O/C1=C\C=C\c1sc2ccccc2[n+]1CC [Dye D-123] | 0.4 | 80 | IC50 [1, 7]: 0.4 µg/mL; IC50 [2, 8]: 0.005 µg/mL; CV/CX [2, 9]: 80.0
23 | 0.035 | CCN1/C(=C/C=C/c2sc3ccccc3[n+]2CCO)Sc2ccccc21 [Dye D-125] | > 3.2 | >91.4 | IC50 ([1]; CV-1, Table XX, thiacarbocyanine nitrogen substituents, CV-1 cells, read-out: CV): > 3.2 µg/mL; IC50 ([2]; CX-1, Table XX, thiacarbocyanine nitrogen substituents, CX-1 cells, read-out: CX): 0.035 µg/mL; CV/CX ([2]; Table XX, ratio given a value of 1 where dye inactive): 91.4
24 | 0.005 | CN1/C(=C/c2ccc3ccc4ccccc4c3[n+]2C)Sc2ccccc21 [Dye D-130] | 0.5 | 100 | –
25 | 0.009 | CC[n+]1c(/C=C/C=C2/c3c(C)ccc(C)c3C(C)(Cc3ccccc3)N2C)sc2ccc3ccccc3c21 [Dye D-133] | 3 | 333.5 | Selectivity [2]: 333.5
26 | 0.03 | CC[n+]1c(/C=C/C=C2\SCCCN2C)sc2ccccc21 [Dye D-144] | 3 | 100 | –
27 | < 0.005 | CC[n+]1c(/C=C/C=C2\OC=C(c3ccccc3)N2C)sc2ccccc21 [Dye D-145] | 0.3 | 60 | –
28 | 0.05 | CCC(/C=C1\Sc2ccc(Cl)cc2N1C)=C\c1oc2ccc(-c3ccccc3)cc2[n+]1C [Dye D-147] | 8 | 160 | –
29 | 0.09 | CCN1/C(=C/C=N/c2sc3ccccc3[n+]2CC)Sc2ccccc21 [Dye D-149] | 7 | 77.8 | –
